Data on 17 compounds can be found in PubChem BioAssay (NCI).

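These data come from cells grown in 96-well plates and exposed to compound for 48 hours at five concentrations. Abbreviation: GI50, concentration required for 50% inhibition of growth. The concentration for full growth arrest is given as TGI.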

Assay in all cases: NCI-60 cell line screen, 48 h
In assay [1] the test system is SF-295 CNS.
For assay [2], the system named is SK-MEL-2 melanoma.
Assay [3] has as its system SF-268 CNS.
The subject of assay [4] is OVCAR-3 ovarian.
For assay [5], the system named is SNB-19 CNS.
The subject of assay [6] is OVCAR-4 ovarian.
Assay [7] deals with LOX IMVI melanoma.
For assay [8], the system named is CAKI-1 renal.

With `O=C(Nc1cc([N+](=O)[O-])cc([N+](=O)[O-])c1)OC1C2CCC1C1OC1C2` (stereo unspecified), the TGI in assay [1], in assay [2], in assay [3], in assay [4], in assay [5] and in assay [6] was greater than 50 µM throughout.
On to `CC(C)(C)[Si](Nc1ccccc1)(c1ccccc1)c1ccccc1`, for which the TGI in assay [1] is 26 µM; in assay [7], 26.1 µM; in assay [2], 35.8 µM; in assay [3], 28 µM; in assay [4], 27.4 µM; in assay [5] it was 27.1 µM. In assay [6], this compound showed a TGI of 27.1 µM.
Regarding `O=C(Nc1ccccc1)OCc1nc2c([nH]1)C(=O)C=CC2=O`, the TGI in assay [1] worked out at 33.1 µM; in assay [7], 30.9 µM; in assay [2] it was 34.2 µM; in assay [4], 30.8 µM; in assay [8], 13.4 µM; in assay [5] it was 28.5 µM. In addition, the TGI in assay [6] is 28 µM.
As for `CCCCCC/C=C/CCCCCCCc1cccc(O)c1C(=O)O`, the TGI in assay [1], in assay [7], in assay [2], in assay [3], in assay [4] and in assay [8] was greater than 100 µM each time. Further, the TGI in assay [5] and in assay [6] was greater than 100 µM throughout.
Turning to `O/N=C1/C(=C/c2ccc(Cl)cc2)CCCC1C(NO)c1ccc(Cl)cc1` (stereo unspecified), the TGI in assay [1] worked out at 36.4 µM; in assay [2] it was 68.5 µM; in assay [3], 40.2 µM; in assay [4] it was 31 µM; in assay [8], 53.5 µM; in assay [5] it was 76.6 µM. The same compound had a TGI in assay [6] of 32.8 µM.
For the compound `C[C@@]1(CBr)C[C@@](C)(/C=C/Cl)[C@@H](Cl)C[C@H]1Cl`, the TGI in assay [1] is 26.8 µM; in assay [7] it was 23.7 µM; in assay [2] it was 8.46 µM; in assay [3] it was 30.1 µM; in assay [4], 22.8 µM; in assay [8], 31.7 µM. Moreover, the TGI was 27.1 µM in assay [5] and 24.6 µM in assay [6].
For `CC(=O)OC1C/C(C)=C/[C@H](O)CC(C)/C=C/[C@@]2(C)CCC(C(C)(C)O)C12` (stereo partly specified), the TGI in assay [1], in assay [7], in assay [2], in assay [3], in assay [4] and in assay [8] was greater than 100 µM throughout. In addition, the TGI in assay [5] and in assay [6] was greater than 100 µM each time.
For `NC(=O)C12CCC1C1CCCCC12N1CCOCC1` (stereo unspecified), the TGI in assay [1], in assay [7], in assay [2], in assay [3], in assay [4] and in assay [8] was greater than 100 µM each time. Besides, the TGI in assay [5] and in assay [6] was greater than 100 µM each time.
As for `CC(=O)Oc1cc(OC(C)=O)c2cc3c(cc2c1OC(C)=O)C(=O)C1(CCCC1)C3=O`, the TGI in assay [1] stood at 29.9 µM; in assay [7], 33.5 µM; in assay [3], 66.5 µM; in assay [4] it was 34.5 µM; in assay [8], 25.2 µM; in assay [6] it was 33 µM.
As for `COc1cc(C(=C2SCCS2)c2nccc3cc(OC)c(OC)cc23)c([N+](=O)[O-])cc1OC`, the TGI in assay [1], in assay [7], in assay [2], in assay [3], in assay [4] and in assay [5] was greater than 100 µM in each case.
Take `O=c1cc(-c2ccc[nH]2)[nH]c2cc3c(cc12)OCO3`: the GI50 in assay [1] is 33.8 µM; in assay [3] it was greater than 100 µM; in assay [4], 30.8 µM. Further, the TGI in assay [1], in assay [7], in assay [2], in assay [3], in assay [4] and in assay [5] was greater than 100 µM in each case. Moreover, the TGI in assay [6] worked out at 56 µM.
`CN(/C(=N\O)c1ccccc1)c1ccccc1`: the TGI in assay [1] is 43.4 µM; in assay [7] it was 75.7 µM; in assay [2] it was 70.1 µM; in assay [3], 97 µM; in assay [4] it was 59.2 µM; in assay [8] it was greater than 100 µM. Moreover, the TGI is 90.3 µM in assay [5] and greater than 100 µM in assay [6].
As for `C[n+]1ccc2[nH]c3ccccc3c2c1`, the TGI in assay [1], in assay [7], in assay [2], in assay [3], in assay [4] and in assay [8] was greater than 100 µM throughout. Further, the TGI in assay [5] and in assay [6] was greater than 100 µM in each case.
Turning to `CN(C(=O)C1CC1)C1C2CN3CCC(O2)C13` (stereo unspecified), the TGI in assay [1], in assay [7], in assay [2], in assay [3], in assay [4] and in assay [8] was greater than 100 µM in each case. The TGI in assay [5] and in assay [6] was greater than 100 µM each time.
As to `COC(=O)NN=C1C(C)(C)C(=NNC(=O)OC)C1(C)C`, the TGI in assay [1] was greater than 100 µM; in assay [7], greater than 50.9 µM; in assay [2], greater than 100 µM; in assay [3] it was greater than 100 µM; in assay [4], greater than 100 µM; in assay [8] it was greater than 100 µM. Moreover, the TGI in assay [5] and in assay [6] was greater than 100 µM each time.
In the case of `N=C(N)Cn1cnc2ccccc21`, the TGI in assay [1], in assay [7], in assay [2], in assay [3], in assay [4] and in assay [5] was greater than 100 µM each time.
On to `O/N=C1/C(=C/c2ccccc2)CCCC1C(NO)c1ccccc1` (stereo unspecified), for which the TGI in assay [1], in assay [7], in assay [2], in assay [3], in assay [4] and in assay [5] was greater than 100 µM in each case. Moreover, in assay [6], the TGI is greater than 100 µM.
